Data: patent publication US20250243210A1, “CRBN E3 LIGASE LIGAND COMPOUND, PROTEIN DEGRADER DEVELOPED BASED THEREON AND THEIR APPLICATIONS” (GLUETACS THERAPEUTICS (SHANGHAI) CO., LTD., priority 2021, published 2025)

Experiments:
[1] = tested on: Daudi; test: CCK-8 tumor cell proliferation, Daudi; assay type: cell-based; conditions: Homo sapiens, 96 h, read-out: IC50 for inhibiting the proliferation of tumor cells, Daudi
Experimental: (§1) Determination of half inhibitory concentration (IC50) of the compounds against tumor cells:
(§2) The tumor cells used herein were cultured in a cell culture medium listed in table 6 at 37° C. in an incubator with 5% CO2.
(§3) After the cells were treated with the compounds of the present disclosure for a period of time (the treatment times listed in Table 7), the cell viability detection reagent was added to the culture medium for cell viability assessment according to the instructions provided with the CCK-8 kit. […] The growth inhibition of the compounds of the present disclosure on cells was plotted by Prism Graphpad software, and the IC50 values of the compounds of the present disclosure were calculated therefrom.

[2] = tested on: Kasumi-1; test: CCK-8 tumor cell proliferation, Kasumi-1; assay type: cell-based; conditions: Homo sapiens, Kasumi-1, 72 h, read-out: IC50 for inhibiting the proliferation of tumor cells, Kasumi-1
Experimental: as §1, §2, §3

[3] = tested on: SU-DHL-6; test: CCK-8 tumor cell proliferation, SU-DHL-6; assay type: cell-based; conditions: Homo sapiens, SU-DHL-6, 72 h, read-out: IC50 for inhibiting the proliferation of tumor cells, SU-DHL-6
Experimental: as §1, §2, §3

[4] = tested on: TMD8; test: CCK-8 tumor cell proliferation, TMD8; assay type: cell-based; conditions: Homo sapiens, TMD8, 72 h, read-out: IC50 for inhibiting the proliferation of tumor cells, TMD8
Experimental: as §1, §2, §3

[5] = tested on: LNcap; test: CCK-8 tumor cell proliferation, LNcap; assay type: cell-based, Human; conditions: 96 h, read-out: IC50 for inhibiting the proliferation of tumor cells, LNcap
Method in brief: (§4)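 Cells were seeded in 96-well plates and treated 24 h later with compounds at 10 concentrations, top 10 μM, 5-fold serial dilutions. Viability after the set treatment time was read with a CCK-8 kit, and IC50 was calculated from growth-inhibition curves.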

[6] = tested on: DU-145; test: CCK-8 tumor cell proliferation, DU-145; assay type: cell-based, Human; conditions: DU-145, 96 h, read-out: IC50 for inhibiting the proliferation of tumor cells, DU-145
Method in brief: (§5)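 Cells grown at 37° C with 5% CO2, treated with compound for line-specific times, then viability read with CCK-8. IC50 derived from plotted growth inhibition curves.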

[7] = tested on: MM.1R; test: CCK-8 tumor cell proliferation, MM.1R; assay type: cell-based; conditions: 72 h, read-out: IC50 for inhibiting the proliferation of tumor cells, MM.1R
Method in brief: as §5

[8] = tested on: MGC80-3; test: CCK-8 tumor cell proliferation, MGC80-3; assay type: cell-based, Human; conditions: MGC80-3, 96 h, read-out: IC50 for inhibiting the proliferation of tumor cells, MGC80-3
Method in brief: as §4

[9] = tested on: CCRF-CEM; test: CCK-8 tumor cell proliferation, CCRF-CEM; assay type: cell-based, Human; conditions: 96 h, read-out: IC50 for inhibiting the proliferation of tumor cells, CCRF-CEM
Experimental: as §1, §2, §3

[10] = tested on: Hep3B2.1-7; test: CCK-8 tumor cell proliferation, Hep3B2.1-7; assay type: cell-based, Human; conditions: Hep3B2.1-7, 96 h, read-out: IC50 for inhibiting the proliferation of tumor cells, Hep3B2.1-7
Method in brief: as §4

[11] = tested on: WSU-DLCL2; test: CCK-8 tumor cell proliferation, WSU-DLCL2; assay type: cell-based, Human; conditions: WSU-DLCL2, 96 h, read-out: IC50 for inhibiting the proliferation of tumor cells, WSU-DLCL2
Method in brief: as §5

[12] = tested on: A549; test: CCK-8 tumor cell proliferation, A549; assay type: cell-based, Human; conditions: A549, 96 h, read-out: IC50 for inhibiting the proliferation of tumor cells, A549
Experimental: as §1
The tumor cells used herein were cultured in a cell culture medium listed in table 6 at 37° C. in an incubator with 5% CO2. Prior to experimentation, all cells used were correctly identified by STR profiling, and tested negative for mycoplasma through routine screenings.
IC50 values of the compounds of the present disclosure (including the compounds in Table 4 and compounds of examples 1-72) were measured using the Meilun Cell Counting Kit-S kit from Dalian Meilun Biotech Co., Ltd. Assay details are as follows: tumor cells were seeded in a 96-well plate at a density listed in Table 7. After 24 h, 100 μL of the inoculated cells were treated with 0.5 μL of the compounds of the present disclosure (including the compounds in Table 4 and compounds of examples 1-72) at 10 different successively decreasing concentrations (starting at the highest concentration of 10 μM; 5-fold serial dilutions). After the cells were treated with the compounds of the present disclosure for a period of time (the treatment times listed in Table 7), the cell viability detection reagent was added to the culture medium for cell viability assessment according to the instructions provided with the CCK-8 kit. […] The growth inhibition of the compounds of the present disclosure on cells was plotted by Prism Graphpad software, and the IC50 values of the compounds of the present disclosure were calculated therefrom.

Compound | IC50 [1] [µM] | IC50 [2] [µM] | IC50 [3] [µM] | IC50 [4] [µM] | IC50 [5] [µM] | IC50 [6] [µM] | IC50 [7] [µM] | IC50 [8] [µM] | IC50 [9] [µM] | IC50 [10] [µM] | IC50 [11] [µM] | IC50 [12] [µM]
Cc1nc(Nc2ncc(C(=O)Nc3c(C)cccc3Cl)s2)cc(N2CCN(CCO)CC2)n1 [Dasatinib, reference compound] | 0.1 to 0.5 | ≤ 0.05 | ≤ 0.05 | ≤ 0.05 |  |  |  |  |  |  |  | 
N#Cc1ccc(OC2CCC(NC(=O)c3ccc(N4C5CCC4CN(CC4CCN(c6cc7c(cc6F)C(=O)N(C6CCC(=O)NC6=O)C7=O)CC4)C5)nn3)CC2)cc1Cl (stereo not drawn) [GT-03449, N-((1r,4r)-4-(3-chloro-4-cyanophenoxy)cyclohexyl)-6-(3-((1-(2-(2,6-dioxopiperidin-3-yl)-6-fluoro-1,3-dioxoisoindolin-5-yl)piperidin-4-yl)methyl)-3,8-diazabicyclo[3.2.1]octan-8-yl)pyridazine-3-carboxamide] |  |  |  |  | 0.05 to 0.1 | 0.5 to 1 | 0.1 to 0.5 | 0.05 to 0.1 | 0.1 to 0.5 | 0.05 to 0.1 |  | 
N#Cc1ccc(OC2CCC(NC(=O)c3ccc(N4CCC(CN5CC6CC(C5)N6c5cc6c(cc5F)C(=O)N(C5CCC(=O)NC5=O)C6=O)CC4)nn3)CC2)cc1Cl (stereo not drawn) [GT-03486, N-((1r,4r)-4-(3-chloro-4-cyanophenoxy)cyclohexyl)-6-(4-((6-(2-(2,6-dioxopiperidin-3-yl)-6-fluoro-1,3-dioxoisoindolin-5-yl)-3,6-diazabicyclo[3.1.1]heptan-3-yl)methyl)piperidin-1-yl)pyridazine-3-carboxamide] |  |  |  |  | 0.1 to 0.5 |  | 0.1 to 0.5 | 0.05 to 0.1 | 0.1 to 0.5 |  | 0.1 to 0.5 | 0.1 to 0.5
Cc1nc(Nc2ncc(C(=O)Nc3c(C)cccc3Cl)s2)cc(N2CCC(CN3C4CCC3CN(c3cc5c(cc3F)C(=O)N(C3CCC(=O)NC3=O)C5=O)C4)CC2)n1 (stereo not drawn) [GT-03537, N-(2-chloro-6-methylphenyl)-2-((6-(4-((3-(2-(2,6-dioxopiperidin-3-yl)-6-fluoro-1,3-dioxoisoindolin-5-yl)-3,8-diazabicyclo[3.2.1]octan-8-yl)methyl)piperidin-1-yl)-2-methylpyrimidin-4-yl)amino)thiazole-5-carboxamide] | 0.1 to 0.5 | 0.05 to 0.1 | ≤ 0.05 | ≤ 0.05 |  |  |  |  |  |  |  | 
Cc1nc(Nc2ncc(C(=O)Nc3c(C)cccc3Cl)s2)cc(N2CCC(CN3C4CC3CN(c3cc5c(cc3F)C(=O)N(C3CCC(=O)NC3=O)C5=O)C4)CC2)n1 (stereo not drawn) [GT-03538, N-(2-chloro-6-methylphenyl)-2-((6-(4-((3-(2-(2,6-dioxopiperidin-3-yl)-6-fluoro-1,3-dioxoisoindolin-5-yl)-3,6-diazabicyclo[3.1.1]heptan-6-yl)methyl)piperidin-1-yl)-2-methylpyrimidin-4-yl)amino)thiazole-5-carboxamide] | 0.1 to 0.5 | 0.1 to 0.5 | ≤ 0.05 | ≤ 0.05 |  |  |  |  |  |  |  | 
Cc1nc(Nc2ncc(C(=O)Nc3c(C)cccc3Cl)s2)cc(N2CCC(CN3C4CCC3CN(c3ccc5c(c3)C(=O)N(C3CCC(=O)NC3=O)C5=O)C4)CC2)n1 (stereo not drawn) [GT-03632, N-(2-chloro-6-methylphenyl)-2-((6-(4-((3-(2-(2,6-dioxopiperidin-3-yl)-1,3-dioxoisoindolin-5-yl)-3,8-diazabicyclo[3.2.1]octan-8-yl)methyl)piperidin-1-yl)-2-methylpyrimidin-4-yl)amino)thiazole-5-carboxamide] | 0.05 to 0.1 | ≤ 0.05 | ≤ 0.05 |  |  |  |  |  |  |  |  | 
